Structures are written as SMILES. Values after ≈ are worked out from the molar mass of the structure shown.

Holding throughout (assay): In vitro MIC, agar dilution
Common to all, as to assay type: cell-based
Background: Agar dilution tests growth on a series of plates holding different concentrations.

One test has as its system E. coli ATCC 25992. The following applies: Escherichia coli, ATCC25992, read-out: minimum inhibitory concentration (MIC). An outline of the steps:
(§1)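 Test agent, dissolved in PBS pH 7.2 with Tween 20 or DMSO if needed, was mixed into molten Mueller-Hinton agar over a two-fold series topping at 128 μg/mL. Log-phase isolates were then spot-inoculated at ~10^4 cfu and incubated at 35-36 °C for 16-20 hours.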

The test system of another test is E. faecalis ATCC 29212. The following applies: Enterococcus faecalis, ATCC29212, read-out: minimum inhibitory concentration (MIC). An outline of the steps:
as §1

The subject of a further test is E. faecium A491(Amp^R). Conditions: Enterococcus faecium, read-out: minimum inhibitory concentration (MIC). An outline of the steps:
as §1

Another test has as its system E. faecium VanA(Van^R). The following applies: Enterococcus faecium, read-out: minimum inhibitory concentration (MIC). Summed up: as §1
A further test deals with P. aeruginosa ATCC 27853. Conditions: Pseudomonas aeruginosa, ATCC27853, read-out: minimum inhibitory concentration (MIC). An outline of the steps:
as §1

The test system of test [1] is S. aureus 76(Meth^R)(lac^+). Conditions: Staphylococcus aureus, read-out: minimum inhibitory concentration (MIC). An outline of the steps: as §1
Test [2] concerns S. aureus ATCC 13709(Meth^S). Conditions: Staphylococcus aureus, ATCC13709, S. aureus ATCC 13709(Meth^S); read-out: minimum inhibitory concentration (MIC). An outline of the steps:
as §1

Test [3] concerns S. aureus PC1(Meth^S)(lac^+). The following applies: Staphylococcus aureus, read-out: minimum inhibitory concentration (MIC). An outline of the steps: as §1

With `C[C@@H](O)[C@H]1C(=O)N2C(C(=O)O)=C(SCCN=CN)C[C@H]12` [Imipenem, imipenem, reference compound], the MIC in the test with E. coli ATCC 25992 was ≤ 0.25 µg/mL; with E. faecalis ATCC 29212 it was ≤ 0.25 µg/mL; in the test on E. faecium A491(Amp^R) it was > 128 µg/mL; with E. faecium VanA(Van^R), 4 µg/mL (≈ 13.4 µM); with P. aeruginosa ATCC 27853 it was 1 µg/mL (≈ 3.34 µM); in test [1] it was 32 µg/mL (≈ 107 µM). Further, the MIC in test [2] and in test [3] was ≤ 0.25 µg/mL each time.
